Data taken from patent US20260273073A1, “TRANSDUCIN BETA-LIKE PROTEIN 1 DEGRADERS” (Ohio State Innovation Foundation, priority 2023, published 2026).
Where two headings read alike, the source gives them in different places.

Key:
Type in all cases: cell-based
[1] = system: Pfeiffer; test: PROTAC compounds evaluated against lymphoma cell line Pfeiffer
Experimental: (§1) A library of PROTAC compounds was prepared according to the sequences depicted in FIGS. 1 and 2. These compounds were evaluated against three different lymphoma cell lines (Riva, Pfeiffer, and Granta-519): […]

[2] = system: Granta-519; test: PROTAC compounds evaluated against lymphoma cell line Granta-519; conditions: Granta-519 lymphoma cell line
Experimental: as §1

[3] = system: Riva; test: PROTAC compounds evaluated against lymphoma cell line Riva
Experimental: as §1

| IC50 [1] | IC50 [2] | IC50 [3] | IC50 ([1]; Homo sapiens) | IC50 ([2]; Homo sapiens) | Structure (SMILES) |
| --- | --- | --- | --- | --- | --- |
| 398 nM | 523 nM | 795 nM | – | – | CC1CC(C)CN(S(=O)(=O)c2ccc3c(c2)C(=NO)c2cc(S(=O)(=O)N4CC(C)CC(C)C4)ccc2C3=NOCCCNC(=O)CCCCNc2cccc3c2C(=O)N(C2CCC(=O)NC2=O)C3=O)C1 (stereo not drawn) [RY-3-128] |
| > 20000 nM | > 20000 nM | > 20000 nM | – | – | CC1CC(C)CN(S(=O)(=O)c2ccc3c(c2)C(=NO)c2cc(S(=O)(=O)N4CCN(C(=O)CCOCCNc5cccc6c5C(=O)N(C5CCC(=O)NC5=O)C6=O)CC4)ccc2C3=NO)C1 (stereo not drawn) [RY-3-122] |
| 647 nM | 496 nM | 560 nM | – | – | CC1CC(C)CN(S(=O)(=O)c2ccc3c(c2)C(=NO)c2cc(S(=O)(=O)N4CCN(C(=O)CCCCNc5cccc6c5C(=O)N(C5CCC(=O)NC5=O)C6=O)CC4)ccc2C3=NO)C1 (stereo not drawn) [RY-3-120] |
| 189 nM | 323 nM | 651 nM | – | – | CC1CC(C)CN(S(=O)(=O)c2ccc3c(c2)C(=NO)c2cc(S(=O)(=O)N4CC(C)CC(C)C4)ccc2C3=NOCCCNC(=O)CCNc2cccc3c2C(=O)N(C2CCC(=O)NC2=O)C3=O)C1 (stereo not drawn) [RY-3-127] |
| 554 nM | 1040 nM | 1350 nM | – | – | CC1CC(C)CN(S(=O)(=O)c2ccc3c(c2)C(=NO)c2cc(S(=O)(=O)N4CC(C)CC(C)C4)ccc2C3=NOCCCNC(=O)CCOCCNc2cccc3c2C(=O)N(C2CCC(=O)NC2=O)C3=O)C1 (stereo not drawn) [RY-3-129] |
| 2500 nM | 1160 nM | 1160 nM | – | – | CC1CC(C)CN(S(=O)(=O)c2ccc3c(c2)C(=NO)c2cc(S(=O)(=O)N4CCN(C(=O)CCCCCCCCCCNc5cccc6c5C(=O)N(C5CCC(=O)NC5=O)C6=O)CC4)ccc2C3=NO)C1 (stereo not drawn) [RY-3-121] |
| 355 nM | 530 nM | 929 nM | – | – | CC1CC(C)CN(S(=O)(=O)c2ccc3c(c2)C(=NO)c2cc(S(=O)(=O)N4CC(C)CC(C)C4)ccc2C3=NOCCCNC(=O)CCCCCCNc2cccc3c2C(=O)N(C2CCC(=O)NC2=O)C3=O)C1 (stereo not drawn) [RY-3-130] |
| > 20000 nM | > 20000 nM | > 20000 nM | – | – | CC1CC(C)CN(S(=O)(=O)c2ccc3c(c2)C(=NO)c2cc(S(=O)(=O)N4CC(C)CC(C)C4)ccc2C3=NOCCCNC(=O)CCCCCCCCCCNc2cccc3c2C(=O)N(C2CCC(=O)NC2=O)C3=O)C1 (stereo not drawn) [RY-3-124] |
| > 20000 nM | > 20000 nM | > 20000 nM | – | – | CC1CC(C)CN(S(=O)(=O)c2ccc3c(c2)C(=NO)c2cc(S(=O)(=O)N4CCN(C(=O)CCOCCOCCNc5cccc6c5C(=O)N(C5CCC(=O)NC5=O)C6=O)CC4)ccc2C3=NO)C1 (stereo not drawn) [RY-3-113] |
| 343 nM | 439 nM | 605 nM | – | – | CC1CC(C)CN(S(=O)(=O)c2ccc3c(c2)C(=NO)c2cc(S(=O)(=O)N4CCN(C(=O)CCCCCCNc5cccc6c5C(=O)N(C5CCC(=O)NC5=O)C6=O)CC4)ccc2C3=NO)C1 (stereo not drawn) [RY-3-108] |
| 1880 nM | > 20000 nM | > 20000 nM | – | – | CC1CC(C)CN(S(=O)(=O)c2ccc3c(c2)C(=NO)c2cc(S(=O)(=O)N4CC(C)CC(C)C4)ccc2C3=NOCCCNC(=O)CCOCCOCCNc2cccc3c2C(=O)N(C2CCC(=O)NC2=O)C3=O)C1 (stereo not drawn) [RY-3-131] |
| > 20000 nM | > 20000 nM | > 20000 nM | – | – | CC1CC(C)CN(S(=O)(=O)c2ccc3c(c2)C(=NO)c2cc(S(=O)(=O)N4CCN(C(=O)CCOCCOCCOCCNc5cccc6c5C(=O)N(C5CCC(=O)NC5=O)C6=O)CC4)ccc2C3=NO)C1 (stereo not drawn) [RY-3-123] |
| 564 nM | 399 nM | 797 nM | – | – | CC1CC(C)CN(S(=O)(=O)c2ccc3c(c2)C(=NO)c2cc(S(=O)(=O)N4CCN(C(=O)CCNc5cccc6c5C(=O)N(C5CCC(=O)NC5=O)C6=O)CC4)ccc2C3=NO)C1 (stereo not drawn) [RY-3-119] |
| > 20000 nM | > 20000 nM | > 20000 nM | – | – | CC1CC(C)CN(S(=O)(=O)c2ccc3c(c2)C(=NO)c2cc(S(=O)(=O)N4CC(C)CC(C)C4)ccc2C3=NOCCCNC(=O)CCOCCOCCOCCNc2cccc3c2C(=O)N(C2CCC(=O)NC2=O)C3=O)C1 (stereo not drawn) [RY-3-132] |
| – | – | 86 nM | 175 nM | 94 nM | C[C@@H]1C[C@H](C)CN(S(=O)(=O)c2ccc3c(c2)C(=NO)c2cc(S(=O)(=O)N4C[C@H](C)C[C@H](C)C4)ccc2C3=NO)C1 [Tegavivint, tegavivint, reference compound] |
